From article PMC5291098, “Molecular mutagenesis of ppGpp: turning a RelA activator into an inhibitor” (Scientific Reports, 2017)
“Also recorded” adds a separate entry of the source.

System: T1, RelA binding to 70S initiation complexes
T1 construct: made in house
Experiment: Spin down assay of RelA binding to 70S initiation complexes
Set-up: species or system Escherichia coli
Conditions: 500 μM compound; 2 μM RelA, 1 μM 70S IC programmed with mRNA(MF), with or without tRNAPhe
Description: Figure 4 Functional studies of DR-M014 and DR-4250 with programmed ribosomal complexes. (a,b) Inhibition of RelA activated by starved ribosomal complexes containing deacylated A-site tRNA^Phe. The reaction mixture contained 30 nM RelA, 0.5 μM 70S, 2 μM tRNA^Phe, 2 μM tRNAi^Met, 2 μM mRNA(MF), 100 μM ppGpp, 0.3 mM [^3H] GDP and 1 mM ATP. The experiments were performed in HEPES:Polymix buffer with 5 mM Mg^2+. Error bars represent standard deviations of linear regression estimates, each experiment was performed at least three times. […] Reaction mixture containing combinations of 2 μM RelA, 1 μM 70S initiation complexes programmed with mRNA(MF), 3 μM deacylated tRNA^Phe and test compounds at 500 μM was preincubated at 37 °C for 15 minutes prior to loading 50 μl samples on top of a 50 μl 30% sucrose cushion. After centrifugation for 25 minutes (70,000 r.p.m. at 12 °C) the supernatants were quickly aspirated, the pellets resuspended in 20 μl of SDS loading buffer, and the proteins resolved on 10% SDS-PAGE gel.
The ppGpp-analogues reported earlier promote RelA association with 70S ribosome[25][26] and are, therefore, promising tools for generating stable 70S:RelA complexes for structural investigations. […]
3', 300 μM 3H-GDP, 100 μM ppGpp was pre-incubated at 37° C for 2 min and then reaction started by addition of 1 mM ATP, time points (5 μl) taken, quenched with formic acid and analyzed by TLC. […]

SMILES: Nc1nc2c(ncn2C2CCN(C(=O)P(=O)(O)O)CC2)c(=O)[nH]1 [DR-M014]
- Effect on RelA binding to 70S initiation complexes (in words): promote RelA binding to 70S initiation complexes; also recorded: significantly promotes RelA binding
